Measurements reported in patent publication US20240390484A1 (priority 2022, published 2024).

Tests used:
[1] = Particle size and polydispersity index (PDI) by Dynamic Light Scattering; format: physicochemical; conditions: for “Ready-to-use” S2P RNA formulation PDI / “Ready-to-use” S2P RNA formulation Size: 48/40.5/10/1.5 mol %, blank-LNP added to lyophilized S2P RNA (55 ug/vial), N/P 7; for Blank-LNP PDI / Blank-LNP Size: 48/40.5/10/1.5 mol % ionizable lipid/cholesterol/DSPC/DMG-PEG
Experimental: (§1) Lipid nanoparticles (LNPs) were formed or formulated by rapid mixing of an ethanol phase and an aqueous phase using a microfluidic device. The aqueous phase included a 50 mM citrate buffer (pH 5.5). The ethanol phase included an ionizable lipid (as described herein), cholesterol (Jiangsu Southeast Nanomaterials), 1,2-diastearoyl-sn-glycero-3-phosphocholine (DSPC) (Jiangsu Southeast Nanomaterials) and 1,2-dimyristoyl-rac-glycero-3-methoxypolyethylene glycol-2000 (DMG-PEG2000) (SINOPEG). A series of ionizable lipids were evaluated. These four lipid components were mixed at defined molar ratios in ethanol, for instance, at a molar ratio of 48:40.5:10:1.5 (ionizable lipid:cholesterol:DSPC:DMG-PEG2000). The generated LNP particles were purified in citrate buffer (containing sucrose) and characterized with respect to particle size, polydispersity index (PDI) and ionizable lipid concentration. The LNP solution was then diluted to the target concentration and stored at 2-8° C.
(§2) In the case of a filled LNP, for example, an LNP-encapsulated S-2P RNA liquid drug product, the preparation protocol is essentially the same, except that it was an aqueous solution of S-2P RNA in citrate buffer pH 5-6 that constitutes the aqueous phase for LNP formation. The LNP-encapsulated RNA formulation is also referred to as “RNA-LNP” in this disclosure. Regarding characterization, particle size and polydispersity index (PDI) of the RNA-LNP were determined by Dynamic Light Scattering (DLS); RNA encapsulation efficiency and concentration were determined by means of Ribogreen® assay and RNA purity was determined by agarose gel electrophoresis.
(§3) The “ready-to-use” RNA product was manufactured by transferring a predetermined amount of already formed LNP in solution to a sealed vial containing the lyophilized RNA composition, followed by mixing at room temperature. The amount of LNP added per vial (e.g., 30-100 μg RNA per vial) was determined based on the molar ionizable lipid:RNA (N/P) molar ratio of 7. In this disclosure, “ready-to-use” S-2P RNA formulations (also referred to as “LNP(S-2P RNA)”) containing 30-100 μg/mL S-2P RNA were prepared, and then characterized with respect to particle size, polydispersity index, as well as RNA concentration, complexation efficiency, and purity using the same methods as described above in Example 3.

BHK-21 cells = format: cell-based; conditions: ready-to-use S2P RNA, 4 μg, 48 hours post transfection; 48/40.5/10/1.5 mol %
[2] = Stability of blank-LNP at 2-8° C. (particle size, PDI); format: physicochemical; conditions: blank-LNP 48/40.5/10/1.5 mol %
Experimental: as §1
Each generated blank-LNP formulation was added to and mixed with lyophilized S2P RNA, altogether yielding a series of “ready-to-use” S2P RNA test items containing the different ionizable lipids. The pharmaceutical characteristics (Table 3) and in vitro transfection efficiency (Table 4) of these “ready-to-use” RNA test items were compared head-to-head. In parallel, the stability profiles of these […] blank-LNP formulations (i.e. without RNA complexation) were assessed at 2-8° C. (see Table 5).
The generated fourteen blank-LNP formulations were characterized in terms of particle size and PDI, both at the end of manufacturing (T=0) and 8-week storage at 2-8° C. […] (defined as size increase ≤20 nm in 8 weeks), namely DMG-PEG2000 between at least 1-4 mol %, DSPC between at least 5-20 mol %, ionizable lipid between at least 30-70 mol % and cholesterol between at least 18.5-58.5 mol %.

Vero E6 cells = format: cell-based; conditions: ready-to-use S2P RNA, 4 μg, 48 hours post transfection; 48/40.5/10/1.5 mol %
[3] = RNA encapsulation/complexation efficiency by Ribogreen assay; format: physicochemical; conditions: 48/40.5/10/1.5 mol %; blank-LNP added to lyophilized S2P RNA (55 ug/vial), N/P 7
Experimental: as §2, §3

[4] = various LNP batches, different molar ratios of ionizable lipid:cholesterol:DSPC:DMG-PEG2000

With `CCCCCCCCCOC(=O)CCCCCCCOc1ccc(OCCCCCCCC(=O)OCCCCCCCCC)c(COC(=O)CCCN(C)C)c1` [Lipid #2] the ““Ready-to-use” S2P RNA formulation PDI” value [1] was 0.21, the ““Ready-to-use” S2P RNA formulation Size” value [1] was 211 nm and the “Blank-LNP PDI” value [1] was 0.09. For the same molecule, the “Blank-LNP Size” value [1] was 120 nm, the “RBD expression in BHK-21 cells” value (BHK-21 cells) was 1.34 ng/mL and the “Change in size (nm) vs. T0, T = 1 month” value [2] was “unaltered size”. For the same molecule, the “PDI, T = 1 month” value [2] was 0.07, the “Size, T = 1 month” value [2] was 121 nm and the “Change in size (nm) vs. T0, T = 1 month” value ([2]; listed as #2) was “+1 nm”. For the same molecule, the “Change in size (nm) vs. T0, T = 2 weeks” value [2] was “+2 nm”, the “PDI, T = 2 weeks” value [2] was 0.09 and the “Size, T = 2 weeks” value [2] was 122 nm. For the same molecule, the “PDI, T = 0” value [2] was 0.09, the “Size, T = 0” value [2] was 120 nm and the “RBD expression in Vero E6 cells” value (Vero E6 cells) was 0.97 ng/mL.

For `CCCCCCCCCOC(=O)CCCCCCCOc1ccc(OCCCCCCCC(=O)OC(CCCCCCCC)CCCCCCCC)c(COC(=O)CCCN(C)C)c1` [Lipid #5], the ““Ready-to-use” S2P RNA formulation PDI” value [1] was 0.13, the ““Ready-to-use” S2P RNA formulation Size” value [1] was 137 nm and the “Blank-LNP PDI” value [1] was 0.2. For the same molecule, the “Blank-LNP Size” value [1] was 91 nm, the particle size [1, 4] was 80±15 nm and the polydispersity index [1, 4] was 0.10±0.05. For the same molecule, the ““Ready-to-use” S2P RNA formulation RNA complexation efficiency” value [3] was 44%, the “PDI, T = 1 month” value [2] was 0.14 and the “Size, T = 1 month” value [2] was 93 nm. For the same molecule, the “Change in size (nm) vs. T0, T = 2 weeks” value [2] was −1 nm, the “PDI, T = 2 weeks” value [2] was 0.13 and the “Size, T = 2 weeks” value [2] was 90 nm. For the same molecule, the “PDI, T = 0” value [2] was 0.20 and the “Size, T = 0” value [2] was 91 nm.
